Source: article PMC11479946, “Coupling enzymatic activity and gating in an ancient TRPM chanzyme and its molecular evolution” (Nature Structural & Molecular Biology, 2024)
Blank lines part the entries; values can stand above or below the molecule they belong to.

How the values were obtained:
[1] = biological target: T1, srTRPM2 (Salpingoeca rosetta, UniProt F2UB89, R275A); test: inside-out patch clamp, tsA201 cells, +[…] mV; type: biochemical; conditions: Ca2+ with ADPR; MHR1/2 site; no activation; reduced expression level
T1 construct: gene PTSG_05449; full length; N-terminal TwinStrepII-His8-eGFP tag (thrombin-cleaved for enzyme assays and nanodiscs); expressed in tsA201 cells; homotetramer, GDN detergent or nanodisc

[2] = biological target: T2, srTRPM2 (Salpingoeca rosetta, UniProt F2UB89); test: HPLC fluorescence of etheno-AMP, Michaelis-Menten fit; type: biochemical; conditions: 10 mM MgCl2 final, TBS-GDN, 25 °C; all buckle helix residues mutated to alanine, positions not given
T2 construct: gene PTSG_05449; full length; N-terminal TwinStrepII-His8-eGFP tag (thrombin-cleaved for enzyme assays and nanodiscs); expressed in tsA201 cells; homotetramer, GDN detergent or nanodisc

[3] = biological target: T3, srNUDT9-H (isolated domain) (Salpingoeca rosetta, UniProt F2UB89); test: as above; type: biochemical; conditions: 10 mM MgCl2 final, TBS-GDN, 25 °C
T3 construct: gene PTSG_05449; TwinStrepII-His8-eGFP tag, TEV-cleaved; expressed in tsA201 cells; monomeric

[4] = biological target: T2, srTRPM2; test: as above; type: biochemical; conditions: 10 mM MgCl2 final, TBS-GDN, 25 °C; buckle helix truncated, borders not given
[5] = biological target: T4, srTRPM2 (Salpingoeca rosetta, UniProt F2UB89, F268A); test: inside-out patch clamp, tsA201 cells, +[…] mV; type: biochemical; conditions: Ca2+ with ADPR; MHR1/2 site; no activation
T4 construct: gene PTSG_05449; full length; N-terminal TwinStrepII-His8-eGFP tag (thrombin-cleaved for enzyme assays and nanodiscs); expressed in tsA201 cells; homotetramer, GDN detergent or nanodisc

[6] = biological target: srTRPM2–E1114A (Salpingoeca rosetta); test: cryo-EM structure; purified protein in GDN or nanodisc with CaCl2–ADPR (1:1 mM), MgCl2–AMP–R5P (10:1:1 mM) or MgCl2–ADPR (10:1 mM; 5 s, 10 s or 4 min); fully ligand-bound states; NUDT9-H layer tetramerised via the buckle helix
[7] = biological target: Salpingoeca rosetta TRPM2 chanzyme, wild type, full length (Salpingoeca rosetta); test: cryo-EM structure; purified protein with EDTA (1 mM), CaCl2 (1 mM), MgCl2 (10 mM) or EDTA–ADPR (1:1 mM), 30 min; apo or partially ligand-bound states; C4 symmetry; NUDT9-H domains flexible, not tetramerised
[8] = biological target: Salpingoeca rosetta TRPM2 chanzyme, wild type, full length (Salpingoeca rosetta); test: cryo-EM structure; purified protein in GDN or nanodisc with CaCl2–ADPR (1:1 mM), MgCl2–AMP–R5P (10:1:1 mM) or MgCl2–ADPR (10:1 mM; 5 s, 10 s or 4 min); fully ligand-bound states; NUDT9-H layer tetramerised via the buckle helix
[9] = biological target: srTRPM2–ΔNUDT9-H (Salpingoeca rosetta) (UniProt F2UB89); test: cryo-EM structure; purified protein with EDTA (1 mM), CaCl2 (1 mM), MgCl2 (10 mM) or EDTA–ADPR (1:1 mM), 30 min; apo or partially ligand-bound states; C4 symmetry; NUDT9-H domains flexible, not tetramerised
[10] = biological target: srTRPM2–ΔNUDT9-H (Salpingoeca rosetta) (UniProt F2UB89); test: cryo-EM structure; purified protein in GDN or nanodisc with CaCl2–ADPR (1:1 mM), MgCl2–AMP–R5P (10:1:1 mM) or MgCl2–ADPR (10:1 mM; 5 s, 10 s or 4 min); fully ligand-bound states; NUDT9-H layer tetramerised via the buckle helix

T2 sequence (F2UB89 entry or part of it): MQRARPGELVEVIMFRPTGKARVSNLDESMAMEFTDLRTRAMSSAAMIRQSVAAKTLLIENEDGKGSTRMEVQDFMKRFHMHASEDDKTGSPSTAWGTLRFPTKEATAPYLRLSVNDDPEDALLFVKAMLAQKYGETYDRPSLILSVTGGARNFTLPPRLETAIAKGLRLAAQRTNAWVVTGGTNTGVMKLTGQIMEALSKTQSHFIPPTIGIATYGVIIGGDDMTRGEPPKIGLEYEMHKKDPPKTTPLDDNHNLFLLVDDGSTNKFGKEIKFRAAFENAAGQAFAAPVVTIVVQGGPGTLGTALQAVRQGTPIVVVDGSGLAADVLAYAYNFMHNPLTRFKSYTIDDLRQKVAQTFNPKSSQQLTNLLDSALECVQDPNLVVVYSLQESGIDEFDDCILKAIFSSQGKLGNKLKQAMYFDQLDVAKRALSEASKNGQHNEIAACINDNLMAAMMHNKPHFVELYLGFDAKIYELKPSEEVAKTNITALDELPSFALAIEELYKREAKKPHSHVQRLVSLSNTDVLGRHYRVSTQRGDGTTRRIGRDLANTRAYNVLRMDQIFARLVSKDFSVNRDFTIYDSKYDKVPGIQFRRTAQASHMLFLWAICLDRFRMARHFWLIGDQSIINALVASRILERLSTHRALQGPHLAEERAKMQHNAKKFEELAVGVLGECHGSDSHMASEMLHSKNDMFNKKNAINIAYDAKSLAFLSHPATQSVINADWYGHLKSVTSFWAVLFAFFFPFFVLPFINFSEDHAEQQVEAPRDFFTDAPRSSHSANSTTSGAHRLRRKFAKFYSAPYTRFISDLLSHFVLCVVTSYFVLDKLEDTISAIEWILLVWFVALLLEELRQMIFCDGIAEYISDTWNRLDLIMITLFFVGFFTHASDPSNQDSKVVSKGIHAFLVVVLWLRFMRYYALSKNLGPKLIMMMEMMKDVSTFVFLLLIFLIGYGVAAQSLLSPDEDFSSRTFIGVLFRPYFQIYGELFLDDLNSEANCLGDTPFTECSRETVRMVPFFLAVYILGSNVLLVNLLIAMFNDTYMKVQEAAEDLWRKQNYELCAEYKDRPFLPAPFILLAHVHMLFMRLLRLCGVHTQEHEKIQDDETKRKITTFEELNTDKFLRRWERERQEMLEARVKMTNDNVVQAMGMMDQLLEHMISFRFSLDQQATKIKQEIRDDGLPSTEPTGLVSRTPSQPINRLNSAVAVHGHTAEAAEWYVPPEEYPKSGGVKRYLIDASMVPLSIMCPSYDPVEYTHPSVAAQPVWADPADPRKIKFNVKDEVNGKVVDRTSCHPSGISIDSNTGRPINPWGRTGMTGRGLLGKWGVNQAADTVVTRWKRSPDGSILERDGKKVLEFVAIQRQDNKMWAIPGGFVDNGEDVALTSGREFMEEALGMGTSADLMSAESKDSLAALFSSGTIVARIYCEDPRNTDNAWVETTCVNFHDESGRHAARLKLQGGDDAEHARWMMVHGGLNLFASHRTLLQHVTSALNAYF
T4 sequence (F2UB89 entry or part of it F268A): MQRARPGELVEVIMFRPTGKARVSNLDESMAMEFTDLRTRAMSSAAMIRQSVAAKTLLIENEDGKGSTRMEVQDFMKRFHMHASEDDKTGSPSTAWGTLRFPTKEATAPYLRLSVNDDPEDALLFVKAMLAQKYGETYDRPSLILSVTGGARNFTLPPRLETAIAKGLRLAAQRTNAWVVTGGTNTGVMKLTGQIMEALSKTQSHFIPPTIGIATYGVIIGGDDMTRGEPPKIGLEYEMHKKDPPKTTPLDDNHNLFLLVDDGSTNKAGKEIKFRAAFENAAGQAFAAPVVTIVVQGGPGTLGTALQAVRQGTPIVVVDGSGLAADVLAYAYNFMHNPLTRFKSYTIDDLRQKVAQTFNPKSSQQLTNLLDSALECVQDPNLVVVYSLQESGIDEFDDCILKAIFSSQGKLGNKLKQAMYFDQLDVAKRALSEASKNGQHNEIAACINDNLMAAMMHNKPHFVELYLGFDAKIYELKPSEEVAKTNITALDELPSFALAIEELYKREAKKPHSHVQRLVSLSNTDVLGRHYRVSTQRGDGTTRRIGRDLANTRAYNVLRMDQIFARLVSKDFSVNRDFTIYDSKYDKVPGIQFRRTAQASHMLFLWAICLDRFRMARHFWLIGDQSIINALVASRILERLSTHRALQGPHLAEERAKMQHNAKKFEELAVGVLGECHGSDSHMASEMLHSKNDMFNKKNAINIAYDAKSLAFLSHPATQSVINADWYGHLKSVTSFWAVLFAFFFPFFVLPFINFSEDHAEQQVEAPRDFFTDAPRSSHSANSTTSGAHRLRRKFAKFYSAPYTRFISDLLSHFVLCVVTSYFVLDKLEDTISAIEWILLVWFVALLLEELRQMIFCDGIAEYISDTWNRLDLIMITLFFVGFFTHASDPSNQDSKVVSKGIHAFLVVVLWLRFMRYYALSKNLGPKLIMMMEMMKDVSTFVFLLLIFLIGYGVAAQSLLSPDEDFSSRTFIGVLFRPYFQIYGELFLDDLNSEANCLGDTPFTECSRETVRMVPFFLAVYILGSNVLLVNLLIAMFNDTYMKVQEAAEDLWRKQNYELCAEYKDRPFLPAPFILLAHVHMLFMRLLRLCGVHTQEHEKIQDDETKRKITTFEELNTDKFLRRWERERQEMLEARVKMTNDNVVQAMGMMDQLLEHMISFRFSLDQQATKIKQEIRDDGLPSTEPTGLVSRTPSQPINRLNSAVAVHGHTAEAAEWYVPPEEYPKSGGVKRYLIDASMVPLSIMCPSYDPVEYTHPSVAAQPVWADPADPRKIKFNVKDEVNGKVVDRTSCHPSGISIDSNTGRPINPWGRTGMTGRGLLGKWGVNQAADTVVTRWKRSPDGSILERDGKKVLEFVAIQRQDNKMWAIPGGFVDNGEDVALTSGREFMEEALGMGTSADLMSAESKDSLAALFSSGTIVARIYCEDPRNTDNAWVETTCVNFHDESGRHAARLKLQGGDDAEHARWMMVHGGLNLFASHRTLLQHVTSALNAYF
T1 sequence (F2UB89 entry or part of it R275A): as the sequence (F2UB89 entry or part of it F268A) above, with A268F, R275A counted along it
T3 sequence (F2UB89 entry or part of it): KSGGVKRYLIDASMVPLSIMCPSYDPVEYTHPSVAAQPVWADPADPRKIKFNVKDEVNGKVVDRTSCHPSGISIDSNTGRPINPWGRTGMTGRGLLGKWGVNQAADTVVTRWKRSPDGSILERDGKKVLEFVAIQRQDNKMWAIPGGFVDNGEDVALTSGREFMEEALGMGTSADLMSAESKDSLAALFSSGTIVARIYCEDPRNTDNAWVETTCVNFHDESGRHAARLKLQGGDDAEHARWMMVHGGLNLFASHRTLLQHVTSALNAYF

KM [4]: srTRPM2 lacking the buckle helix (ΔBH)
Molecule: Nc1ncnc2c1ncn2[C@@H]1O[C@H](COP(=O)(O)OP(=O)(O)OC[C@H]2OC(O)[C@H](O)[C@@H]2O)[C@@H](O)[C@H]1O (stereo partly shown) [ADPR]
inside-out patch clamp, tsA201 cells, +60 mV [1]: Replacement of either of these residues with alanine rendered srTRPM2 insensitive to ADPR | KM [2]: srTRPM2 with the buckle helix residues replaced by alanine (BH2A) | KM [3]: representing the rate of ADPR hydrolysis by the isolated srNUDT9-H domain | inside-out patch clamp, tsA201 cells, +60 mV [5]: Replacement of either of these residues with alanine rendered srTRPM2 insensitive to ADPR

stoichiometry N [6]: 4
Molecule: srTRPM2–E1114A (natural protein)

stoichiometry N [7]: 4 | stoichiometry N [8]: 4
Molecule: Salpingoeca rosetta TRPM2 chanzyme, wild type, full length (natural protein)

stoichiometry N [9]: 4 | stoichiometry N [10]: 4
Molecule: srTRPM2–ΔNUDT9-H (from UniProt F2UB89 1-1214) (domain or fragment)
